Laboratory results from ChEMBL document CHEMBL1201862, “PubChem BioAssay data set” (2004).
The source made the active and inactive calls.

Legend:
[1] = molecular target: FAD-linked sulfhydryl oxidase ALR (Homo sapiens, UniProt P55789); experiment: ALR-catalysed DTT oxidation blockers – biochemical, H2O2 detection, luminescence, cherry-pick, dose response (AID 493248)
[2] = molecular target: Luciferin 4-monooxygenase (Photinus pyralis, UniProt P08659); experiment: inhibition of purified Photinus pyralis luciferase – biochemical, luminescence, dose response (AID 1891)
Luciferin 4-monooxygenase, sequence (P08659 whole entry): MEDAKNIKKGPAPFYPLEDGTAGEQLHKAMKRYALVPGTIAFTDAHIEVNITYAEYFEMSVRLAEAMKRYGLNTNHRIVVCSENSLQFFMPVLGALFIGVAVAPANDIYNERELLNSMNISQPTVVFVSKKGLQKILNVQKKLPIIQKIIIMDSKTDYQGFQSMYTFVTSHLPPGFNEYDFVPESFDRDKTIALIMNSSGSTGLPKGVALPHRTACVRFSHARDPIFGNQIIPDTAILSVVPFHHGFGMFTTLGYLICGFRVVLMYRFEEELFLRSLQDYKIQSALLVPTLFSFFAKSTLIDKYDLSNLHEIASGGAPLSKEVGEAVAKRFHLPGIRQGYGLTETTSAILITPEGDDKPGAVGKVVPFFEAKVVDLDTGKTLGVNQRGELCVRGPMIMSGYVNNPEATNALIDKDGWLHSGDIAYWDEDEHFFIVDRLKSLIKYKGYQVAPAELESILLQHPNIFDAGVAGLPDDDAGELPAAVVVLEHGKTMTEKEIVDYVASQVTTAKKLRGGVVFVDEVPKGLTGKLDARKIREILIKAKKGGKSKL

[3] = Luminescence Cell-Based Dose Confirmation HTS to Identify Inhibitors of Platelet Dense Granule Release. [Related pubchem assays: 1663 (Primary HTS), 1678 (Summary of Project)]; type: functional
H4 = experiment: Luminescence Cell-Based Dose Response HTS to Identify Activators of 5'UTR Stem-Loop Driven Prion Protein mRNA Translation in H4 Neuroglioblastoma Cells. [Related pubchem assays: 1829 (Project Summary), 1814 (Primary HTS)]; type: functional; conditions: Homo sapiens
[4] = Luminescence Cell-Based Dose Confirmation HTS to Identify Activators of 5'UTR Stem-Loop Driven Alpha-Synuclein mRNA Translation in H4 Neuroglioblastoma Cells. [Related pubchem assays: 1829 (Project Summary), 1814 (Primary HTS)]; type: functional
[5] = Luminescence Cell-Based Dose Response HTS to Identify Activators of Luciferase Translation or Activity in H4 […] Cells. [Related pubchem assays: 1829 (Project Summary), 1814 (Primary HTS)]; type: functional
[6] = molecular target: T1, Polyadenylate-binding protein 1 (Homo sapiens, UniProt P11940); experiment: MLLE domain peptide-binding blockers, IC50 – biochemical, fluorescence polarization, FITC-PAM2 peptide, dose response (AID 602259); type: functional; conditions: read-out: IC50_Mean
T1 sequence (P11940 whole entry, the tested form may be a part): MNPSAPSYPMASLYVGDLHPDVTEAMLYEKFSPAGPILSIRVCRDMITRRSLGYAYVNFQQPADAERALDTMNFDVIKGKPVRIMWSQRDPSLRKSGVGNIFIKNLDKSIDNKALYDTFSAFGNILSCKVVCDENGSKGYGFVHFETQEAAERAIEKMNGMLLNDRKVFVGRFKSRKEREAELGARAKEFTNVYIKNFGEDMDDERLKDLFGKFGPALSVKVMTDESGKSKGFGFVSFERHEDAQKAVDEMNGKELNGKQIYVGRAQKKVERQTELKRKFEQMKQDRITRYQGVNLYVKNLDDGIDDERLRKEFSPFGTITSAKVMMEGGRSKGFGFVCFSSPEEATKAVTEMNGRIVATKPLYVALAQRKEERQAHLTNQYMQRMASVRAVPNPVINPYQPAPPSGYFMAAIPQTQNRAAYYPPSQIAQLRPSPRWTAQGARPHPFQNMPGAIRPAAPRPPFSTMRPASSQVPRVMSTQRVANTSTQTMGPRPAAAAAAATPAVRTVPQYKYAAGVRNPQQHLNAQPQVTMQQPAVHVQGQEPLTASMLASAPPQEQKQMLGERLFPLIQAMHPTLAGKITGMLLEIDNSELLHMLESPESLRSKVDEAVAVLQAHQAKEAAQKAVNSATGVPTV

[7] = molecular target: T1, Polyadenylate-binding protein 1; experiment: MLLE binding blockers, Cy5 peptide tracer – biochemical, fluorescence polarization, Cy5-PAM2 peptide, secondary, miRNA deadenylation inhibitor project, dose response (AID 602260); type: functional; conditions: read-out: IC50_Mean
[8] = molecular target: T2, Heat shock factor protein 1 (Mus musculus, UniProt P38532); experiment: decrease of HSF1-responsive luciferase luminescence – cell-based, NIH3T3, dose retest, confirmation (AID 2382); type: functional;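 note: NIH3T3 fibroblasts with HSF1-driven luciferase reporter stressed by proteasome inhibitor MG132; luminescence from HSF1-driven luciferase expression after 8 hours of MG132 stress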
T2 sequence (P38532 whole entry): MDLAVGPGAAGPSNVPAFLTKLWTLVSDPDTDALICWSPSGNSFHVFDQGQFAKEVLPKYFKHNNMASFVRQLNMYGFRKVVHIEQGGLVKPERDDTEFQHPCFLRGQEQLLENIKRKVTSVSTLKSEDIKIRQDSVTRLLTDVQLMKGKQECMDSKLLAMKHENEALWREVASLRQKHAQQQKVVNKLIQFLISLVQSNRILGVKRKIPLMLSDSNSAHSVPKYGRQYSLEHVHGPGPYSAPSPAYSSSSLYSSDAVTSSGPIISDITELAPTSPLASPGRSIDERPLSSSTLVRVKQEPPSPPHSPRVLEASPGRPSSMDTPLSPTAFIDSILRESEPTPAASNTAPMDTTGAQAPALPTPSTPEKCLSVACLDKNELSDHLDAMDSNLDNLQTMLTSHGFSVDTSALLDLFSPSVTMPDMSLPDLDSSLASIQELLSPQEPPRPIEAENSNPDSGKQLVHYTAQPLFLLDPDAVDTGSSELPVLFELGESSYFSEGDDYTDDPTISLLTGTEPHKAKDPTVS

cells [9] = type: functional
[10] = viability of HCT116 lacking mutant beta-catenin – cell-based, human colon tumor, dose response (AID 1045); type: functional;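 note: HCT116 colon tumor cells with beta catenin knocked out; cells exposed to compound for 60 hours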
[11] = viability of PTEN-deleted HCT116 cells – cell-based, HCT116 PTEN knockout, dose response (AID 1047); type: functional;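 note: HCT116 colon tumor cells with PTEN knocked out; cells exposed to compound for 60 hours before readout; potency for loss of cell viability measured by luminescence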
Cytochrome P450 1A2 = molecular target: T3, Cytochrome P450 1A2 (Homo sapiens, UniProt P05177);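 note: PubChem cytochrome P450 panel assay, CYP1A2 panel member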
T3 sequence (P05177 whole entry): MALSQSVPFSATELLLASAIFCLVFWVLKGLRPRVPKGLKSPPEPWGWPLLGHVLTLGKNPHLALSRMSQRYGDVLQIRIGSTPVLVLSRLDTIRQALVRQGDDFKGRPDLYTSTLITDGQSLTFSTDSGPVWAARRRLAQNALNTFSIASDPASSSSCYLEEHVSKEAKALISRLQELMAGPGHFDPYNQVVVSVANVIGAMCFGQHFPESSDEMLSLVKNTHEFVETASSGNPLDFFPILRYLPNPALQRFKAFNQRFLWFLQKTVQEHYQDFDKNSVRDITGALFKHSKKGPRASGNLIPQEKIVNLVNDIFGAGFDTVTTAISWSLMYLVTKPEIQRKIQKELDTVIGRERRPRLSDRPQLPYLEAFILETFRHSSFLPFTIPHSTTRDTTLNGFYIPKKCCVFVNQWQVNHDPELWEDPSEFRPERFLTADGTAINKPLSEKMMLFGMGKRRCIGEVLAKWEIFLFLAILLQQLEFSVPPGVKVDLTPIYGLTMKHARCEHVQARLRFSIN

[12] = Luminescence Cell-Based Dose Retest to Confirm Inhibitors of Cancer Stem Cells. [Related pubchem assays (depositor defined):AID2717, AID2721]; type: functional; conditions: Homo sapiens
cells [13] = type: functional, cell-based
cells [14] = type: functional, cell-based; remark: listed apart in the source
Cytochrome P450 2C9 = Cytochrome P450 2C9 (Homo sapiens, UniProt P11712)
Cytochrome P450 2C9, sequence (P11712 whole entry): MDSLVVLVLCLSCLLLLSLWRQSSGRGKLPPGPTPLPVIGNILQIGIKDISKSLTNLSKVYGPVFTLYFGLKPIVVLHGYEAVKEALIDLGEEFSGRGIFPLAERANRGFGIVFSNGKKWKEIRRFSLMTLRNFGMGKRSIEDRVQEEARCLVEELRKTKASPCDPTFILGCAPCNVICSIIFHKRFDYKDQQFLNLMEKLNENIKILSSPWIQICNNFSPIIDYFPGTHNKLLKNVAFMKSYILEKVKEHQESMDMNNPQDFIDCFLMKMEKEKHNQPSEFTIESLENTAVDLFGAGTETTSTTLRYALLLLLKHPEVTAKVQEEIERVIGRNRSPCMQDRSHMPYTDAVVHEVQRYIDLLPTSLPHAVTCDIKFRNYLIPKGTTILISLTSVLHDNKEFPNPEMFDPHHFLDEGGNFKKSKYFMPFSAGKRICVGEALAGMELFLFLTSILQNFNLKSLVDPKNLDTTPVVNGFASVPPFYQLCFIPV

[15] = reduction of Shn3 3'UTR-driven luciferase in osteoblasts – cell-based, Clone20 osteoblasts, firefly luciferase, cherry-picked, dose response (AID 624132); type: functional;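 note: firefly luciferase luminescence from reporter carrying the Shn3 3'UTR in osteoblasts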
[16] = loss of viability in HepG2 cells – cell-based, CellTiter-Glo, cherry-picked, cytotoxicity control for Shn3 inhibitor project, dose response (AID 624134); type: functional
[17] = NIH3T3 cell viability loss – ATP luminescence, mouse fibroblasts, counter-screen, dose response (AID 2010); type: functional, cell-based;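 note: cells exposed to compound for about 90 hours before reading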
[18] = non-specific 3'UTR reporter inhibition in Clone20-Shn3RL – cell-based, Renilla luciferase, cherry-picked, counter-screen for Shn3 inhibitor project, dose response (AID 624133); type: functional
[19] = Trypanosoma cruzi growth suppression in host cells – NIH3T3 host cells, beta-gal luminescence, confirmation (AID 2044); type: functional, cell-based;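 note: intracellular parasites grown in NIH/3T3 mouse fibroblasts as host cells; luminescent beta-galactosidase reporter signal from transgenic T. cruzi replicating inside host cells; inhibitors lower the luminescence signal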
Cytochrome P450 3A4 = Cytochrome P450 3A4 (Homo sapiens, UniProt P08684);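 note: CYP3A4 tested as one member of a cytochrome P450 panel screen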
Cytochrome P450 3A4, sequence (P08684 whole entry): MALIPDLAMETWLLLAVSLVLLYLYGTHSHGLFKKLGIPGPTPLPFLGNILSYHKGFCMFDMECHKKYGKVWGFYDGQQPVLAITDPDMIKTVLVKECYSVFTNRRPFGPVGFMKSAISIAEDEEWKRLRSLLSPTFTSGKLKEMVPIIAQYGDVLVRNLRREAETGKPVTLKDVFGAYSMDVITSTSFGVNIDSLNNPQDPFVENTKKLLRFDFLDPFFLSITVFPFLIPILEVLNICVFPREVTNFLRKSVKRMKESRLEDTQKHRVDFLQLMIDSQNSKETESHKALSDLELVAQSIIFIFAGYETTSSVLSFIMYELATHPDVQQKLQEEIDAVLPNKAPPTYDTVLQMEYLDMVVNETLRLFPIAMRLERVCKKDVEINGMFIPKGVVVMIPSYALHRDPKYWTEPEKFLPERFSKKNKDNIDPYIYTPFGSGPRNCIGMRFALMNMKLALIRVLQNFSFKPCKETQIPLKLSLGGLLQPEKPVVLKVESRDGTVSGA

Cytochrome P450 2D6 = Cytochrome P450 2D6 (Homo sapiens, UniProt P10635);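 note: CYP2D6 member of a cytochrome P450 panel assay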
Cytochrome P450 2D6, sequence (P10635 whole entry): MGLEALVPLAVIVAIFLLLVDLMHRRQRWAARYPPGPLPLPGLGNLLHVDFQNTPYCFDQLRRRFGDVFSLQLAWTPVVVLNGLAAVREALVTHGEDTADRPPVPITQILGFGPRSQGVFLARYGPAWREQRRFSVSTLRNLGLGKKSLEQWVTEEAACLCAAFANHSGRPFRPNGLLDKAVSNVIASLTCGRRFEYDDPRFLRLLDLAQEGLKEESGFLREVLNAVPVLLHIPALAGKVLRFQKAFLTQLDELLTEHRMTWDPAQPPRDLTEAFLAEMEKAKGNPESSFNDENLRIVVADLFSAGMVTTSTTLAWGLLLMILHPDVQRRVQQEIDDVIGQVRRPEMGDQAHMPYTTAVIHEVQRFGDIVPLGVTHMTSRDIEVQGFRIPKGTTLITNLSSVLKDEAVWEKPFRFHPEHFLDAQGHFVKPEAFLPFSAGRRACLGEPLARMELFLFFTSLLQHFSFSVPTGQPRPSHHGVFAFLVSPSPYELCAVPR

[20] = viability of uninfected HEp-2 cells – cell-based, HTS, cytotoxicity control for RSV inhibitor project, dose response (AID 2410); type: functional; conditions: human respiratory syncytial virus
Cytochrome P450 2C19 = Cytochrome P450 2C19 (Homo sapiens, UniProt P33261); experiment: Cytochrome panel assay with activity outcomes. Panel member name: p450-cyp2c19 Compounds with AC50 equal or less than 10 uM are considered active; type: functional; conditions: read-out: AC50
Cytochrome P450 2C19, sequence (P33261 whole entry): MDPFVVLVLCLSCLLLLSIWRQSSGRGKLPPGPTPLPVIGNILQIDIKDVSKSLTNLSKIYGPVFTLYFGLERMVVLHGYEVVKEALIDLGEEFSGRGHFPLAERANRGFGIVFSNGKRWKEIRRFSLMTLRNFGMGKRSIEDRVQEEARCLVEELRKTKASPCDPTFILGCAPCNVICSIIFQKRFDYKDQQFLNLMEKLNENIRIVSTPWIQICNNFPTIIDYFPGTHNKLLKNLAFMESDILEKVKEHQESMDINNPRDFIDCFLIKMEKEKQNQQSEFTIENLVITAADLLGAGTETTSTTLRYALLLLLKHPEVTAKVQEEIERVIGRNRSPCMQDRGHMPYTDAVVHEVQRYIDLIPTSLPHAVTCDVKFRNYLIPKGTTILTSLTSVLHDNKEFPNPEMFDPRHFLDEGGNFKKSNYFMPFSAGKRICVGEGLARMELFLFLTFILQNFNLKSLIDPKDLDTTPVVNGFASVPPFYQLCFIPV

FAD-linked sulfhydryl oxidase ALR, sequence (P55789 whole entry): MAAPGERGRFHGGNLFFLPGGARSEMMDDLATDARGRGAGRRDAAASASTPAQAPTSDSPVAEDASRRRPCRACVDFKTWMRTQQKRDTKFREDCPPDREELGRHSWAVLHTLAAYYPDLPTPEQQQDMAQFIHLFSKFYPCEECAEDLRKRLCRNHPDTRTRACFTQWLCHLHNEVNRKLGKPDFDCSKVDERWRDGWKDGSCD

COc1cccc(Nc2c(F)c(F)c(F)c(F)c2C(=O)O)c1
AC50 [1]: 4.26 µM (active)

CC(=O)c1c(C)nc2nonc2c1N
EC50 [2]: > 112 µM (not active) | EC50 [3]: 26.6 µM (active)

[O-][n+]1cc(-c2cc3ccccc3o2)[n+]([O-])c2c1CCCC2
EC50 (H4): 2.05 µM (active) | EC50 [4]: > 60 µM (not active) | EC50 [5]: 8.68 µM (active)

Cc1ccc(C(=O)Nc2ccnc(-c3cccnc3)n2)cc1
EC50 (H4): 15.4 µM (active) | EC50 [4]: 13.3 µM (active) | EC50 [5]: 16.1 µM (active)

COc1ccc(OC)c(NC(=O)CS(=O)(=O)Cc2nc(-c3ccccc3C)oc2C)c1
EC50 [2]: > 112 µM (not active) | EC50 [3]: > 112 µM (not active)

N#Cc1c2n(c(=S)n(-c3ccccc3[N+](=O)[O-])c1=O)CCCCC2
IC50 [6]: > 66 µM (inactive) | IC50 [7]: > 66 µM (inactive)

CCc1c(C(C)S(=O)(=O)c2ccccc2)nc(O)n1CC (stereo not drawn)
IC50 [6]: > 66 µM (inactive) | IC50 [7]: > 66 µM (inactive)

COc1cccc(Nc2ccc(C(=O)O)cc2N)c1
EC50 [8]: > 195 µM (not active) | AC50 [1]: 1.17 µM (active)

CC(C)=CCN1CCN(CCC2=C(C)CCCC2(C)C)CC1CCO (stereo not drawn)
IC50 (cells [9]): 21.8 µM (active)

CCOC(=O)c1cc(CC)sc1NC(=O)c1ccc([N+](=O)[O-])c(N2CCOCC2)c1
EC50 [10]: 34.2 µM (active) | EC50 [11]: 39.9 µM (active)

FC(F)c1nnc2ccc(Cl)nn12
IC50 (cells [9]): 7.13 µM (active)

O=[N+]([O-])c1ccc(CN2CCN(c3ccc(F)cc3)CC2)o1
IC50 (cells [9]): < 0.1 µM (active)

CN(C)c1nc(-c2cn(CCC#N)c3ccccc23)cs1
IC50 [6]: 56.9 µM (inactive) | IC50 [7]: > 66 µM (inactive)

CCN1C(=O)[C@@H]2[C@@H](c3ccc(SC4CCCCC4)cc3)N3CCC[C@@]3(C(=O)OC)[C@@H]2C1=O
IC50 [6]: > 66 µM (inactive) | IC50 [7]: > 66 µM (inactive)

CCOC(=O)c1c(NC(=O)/C=C/c2ccc3c(c2)OCO3)sc(C)c1CC
EC50 [2]: > 112 µM (not active) | EC50 [3]: > 112 µM (not active) | AC50 (Cytochrome P450 1A2): 12.6 µM (inconclusive) | AC50 [12]: 1.04 µM (active)

CN(C)c1ccc(/C=N/NC(=O)c2ccco2)cc1
AC50 [1]: 6.78 µM (active)

CN1CCN(C(=S)c2ccc(N(C)C)cc2)CC1
AC50 [1]: 1.45 µM (active)

COc1cc2ncnc(NCc3cccs3)c2cc1OC
EC50 (cells [13]): > 350 µM (not active) | EC50 (cells [14]): > 350 µM (not active)

COc1ccc(S(=O)(=O)Cc2ccc(C(=O)N3CCN(c4ccc(Cl)cc4)CC3)o2)cc1
EC50 [10]: 38.8 µM (active) | EC50 [11]: 16.3 µM (active) | AC50 [1]: 5.64 µM (active)

CCOC(=O)Cc1cnc(S)nc1O
IC50 [6]: > 66 µM (inactive) | IC50 [7]: > 66 µM (inactive)

COCc1c(C(=O)N/N=C(\C)c2ccc(Cl)s2)nnn1-c1nonc1N
EC50 (cells [13]): > 350 µM (not active) | EC50 (cells [14]): > 350 µM (not active)

Cc1ccc(CN(C(=O)c2csnn2)C(C(=O)NC2CCCC2)c2ccco2)cc1 (stereo not drawn)
EC50 [2]: > 112 µM (not active) | EC50 [3]: > 112 µM (not active)

O=C(CS(=O)(=O)c1ccccc1)Nc1ccc(N2CCOCC2)cc1
EC50 (cells [13]): > 350 µM (not active) | EC50 (cells [14]): > 350 µM (not active)

COc1ccc(NC(=O)c2nc3nc(C)cc(C(F)F)n3n2)cc1OC
EC50 [2]: 18.9 µM (active) | EC50 [3]: > 112 µM (not active)

NCCCCCc1nnc(SCc2ccc(Cl)cc2Cl)o1
AC50 [1]: 2.63 µM (active) | AC50 (Cytochrome P450 2C9): 14.1 µM (inconclusive)

CC(=O)c1ccc(N2CCC(c3cc(-c4ccc(Cl)cc4)[nH]n3)CC2)c([N+](=O)[O-])c1
AC50 [15]: 5 µM (active) | AC50 [16]: > 70 µM (inactive) | EC50 [17]: > 60 µM (inconclusive) | AC50 [18]: 20 µM (active) | AC50 (Cytochrome P450 1A2): 2.82 µM (inconclusive) | AC50 [12]: 2.39 µM (active) | EC50 [19]: 1.13 µM (active) | AC50 (Cytochrome P450 3A4): 39.8 µM (inconclusive)

Cn1cc(C(=O)N2CCCC(Nc3ccc(F)cc3)C2)c2ccccc21 (stereo not drawn)
AC50 [1]: 1.5 µM (active)

CC1CN=C(NC(=O)c2cccc([N+](=O)[O-])c2)S1 (stereo not drawn)
IC50 [6]: > 66 µM (inactive) | IC50 [7]: > 66 µM (inactive)

O=C(Nc1cccc(NC(=O)c2ccc(-c3cccc(Br)c3)o2)c1)c1ccco1
EC50 [17]: 14.9 µM (active) | AC50 (Cytochrome P450 2D6): 17.8 µM (inconclusive) | EC50 [19]: 3.69 µM (active) | CC50 [20]: 16 µM (active)

CC(C)CN(C(=O)COC(=O)c1ccc2c(c1)NC(=O)CS2)C1CCS(=O)(=O)C1 (stereo not drawn)
IC50 [6]: > 66 µM (inactive) | IC50 [7]: > 66 µM (inactive)

Cc1ccc(NC(=O)CN(c2ccc3c(c2)OCO3)S(=O)(=O)c2c(C)n[nH]c2C)cc1
AC50 [1]: > 100 µM (inactive)

Cc1cccn2c(=O)c(/C=N/Cc3ccco3)c(Nc3ccc(SC(F)F)cc3)nc12
EC50 [10]: 14 µM (active) | AC50 (Cytochrome P450 2C19): 4.47 µM (inconclusive) | EC50 [11]: 10.7 µM (active)

O=C(CN1C(=O)NC2(CCCCCC2)C1=O)c1ccccc1
EC50 [2]: > 112 µM (not active) | EC50 [3]: > 112 µM (not active)

CCOC(=O)C1CCN(C(=O)CCc2nnc3ccc(NCc4ccco4)nn23)CC1
EC50 [2]: > 112 µM (not active) | EC50 [3]: > 112 µM (not active)

CCCCOC(=O)c1ccc(NC(=O)C(=O)NCc2cccnc2)cc1
EC50 (cells [13]): > 350 µM (not active) | EC50 (cells [14]): > 350 µM (not active)

COc1ccc2oc(C(=O)OCC(=O)Nc3ccccc3OC)c(C)c2c1
EC50 (cells [13]): > 350 µM (not active) | EC50 (cells [14]): 40.5 µM (active)

COC(=O)[C@H](CC(C)C)NC(=O)NCCC1=CCCCC1
IC50 (cells [9]): 21.6 µM (active)

O=P(CN1CCN(c2ccccc2)CC1)(N1CCCCC1)N1CCCCC1
AC50 [1]: 0.656 µM (active)

O=C(O)Cn1cc(C(=S)N2CCCCC2)c2ccccc21
AC50 [1]: 0.407 µM (active)

Cc1cc(C)c2cc(CN(Cc3ccco3)C(=O)NCc3ccccc3)c(O)nc2c1
EC50 [2]: > 112 µM (not active) | EC50 [3]: > 112 µM (not active)

CCc1nc2sc3ccccc3c(=O)c2c(=O)n1Cc1ccc(OC)cc1
EC50 [8]: > 195 µM (not active) | CC50 [20]: > 50 µM (active)

O=C1NCCCc2c1oc1cc(Br)c(O)c(Br)c21
AC50 [1]: 3.5 µM (active)

O=C(NCc1cccs1)C1CC(=O)N(C2CCCC2)C1 (stereo not drawn)
EC50 (cells [13]): > 350 µM (not active) | EC50 (cells [14]): > 350 µM (not active)
